pIC50: −log10 of the molar value. *1 amine or outer side, *2 acyl side, *3 side chain or, on linkers, in order; H or OH if unused. Where a SMILES comes first, the peptide text is derived from it. Bridges are numbered along the chain shown (N, C = ends). Side-chain parts run from the residue outwards. [ ]: non-standard residue; d: D form. The star is where a group is joined. DOTA = O=C(O)CN1CCN(CC(=O)O)CCN(CC(=O)*)CCN(CC(=O)O)CC1; Pro(cis-4-F) = O=C(O)[C@@H]1C[C@H](F)CN1; Ethylenediamine = C(CN[*:2])N[*:1]; Hyp = O=C(O)[C@@H]1C[C@@H](O)CN1; Pentanoyl(4-Me) = CC(C)CCC(=O)*; Cit = NC(=O)NCCC[C@H](N)C(=O)O; Butoxycarbonyl = CCCCOC(=O)*; NMeNle = CCCC[C@H](NC)C(=O)O; Phg = N[C@H](C(=O)O)c1ccccc1; dOrn = NCCC[C@@H](N)C(=O)O; Nle = CCCC[C@H](N)C(=O)O; Aze = O=C(O)[C@@H]1CCN1; Nva = CCC[C@H](N)C(=O)O; Pentanoyl = CCCCC(=O)*; Aib = CC(C)(N)C(=O)O
Legend:
[1] = target: T1, uPAR-expressing HEC-265 human endometrial adenocarcinoma cells (Homo sapiens, UniProt Q03405); experiment: Competitive FACS binding assay; details: pIC50 category of FACS binding
T1 construct: Cell surface uPAR-expressing HEC-265 human endometrial adenocarcinoma cells; host or cells: HEC-265
Procedure, shortened: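 Competitive displacement of a 10 nM biotinylated peptide from HEC-265 cells (1 h, 4 °C, PBS/1% BSA), detected via APC-streptavidin by flow cytometry. pIC50 from four-parameter logistic fit of median fluorescence versus concentration.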

human uPAR (uPAR-Fc) = target: T2, human uPAR (uPAR-Fc) (Homo sapiens, UniProt Q03405); experiment: Surface plasmon resonance (SPR) assay, single cycle kinetics; format: binding; details: pKD category for uPAR SPR activity assay; uPAR-Fc on Protein A-Chip, single cycle kinetics, 25°C; read-out: pKD CAT (converted)
T2 construct: comprising amino acids Leu23-Arg303 according to UniProt entry Q03405.1; purchased R&D Systems 10378-UK-100
Procedure, shortened: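 uPAR-Fc (Leu23-Arg303 extracellular domains, human IgG1 Fc) captured on Protein A chip to ~2000 RU; single-cycle kinetics at 25°C in HEPES running buffer pH 7.4 with 0.1% DMSO. KD from double-referenced sensorgrams fitted to 1:1 Langmuir model, reported as pKD.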

T2 sequence (Q03405 23-303): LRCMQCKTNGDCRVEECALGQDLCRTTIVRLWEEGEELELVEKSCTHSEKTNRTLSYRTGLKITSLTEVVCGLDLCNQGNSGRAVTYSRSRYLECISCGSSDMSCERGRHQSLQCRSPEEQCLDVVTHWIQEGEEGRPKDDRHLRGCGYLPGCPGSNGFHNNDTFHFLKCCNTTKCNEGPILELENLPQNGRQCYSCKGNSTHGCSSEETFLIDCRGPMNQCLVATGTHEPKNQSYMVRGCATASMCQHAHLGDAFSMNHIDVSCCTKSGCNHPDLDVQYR
T1 sequence (Q03405 23-335): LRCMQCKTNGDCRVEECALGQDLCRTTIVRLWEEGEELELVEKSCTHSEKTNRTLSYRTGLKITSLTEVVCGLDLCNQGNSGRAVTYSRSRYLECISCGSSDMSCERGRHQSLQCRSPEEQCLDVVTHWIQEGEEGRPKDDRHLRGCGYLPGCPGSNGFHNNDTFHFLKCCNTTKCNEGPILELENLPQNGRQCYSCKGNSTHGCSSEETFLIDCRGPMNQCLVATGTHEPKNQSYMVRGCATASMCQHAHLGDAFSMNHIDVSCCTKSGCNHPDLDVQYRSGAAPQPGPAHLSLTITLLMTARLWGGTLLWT

Row | Structure (SMILES) | pIC50 [1] | Kd (human uPAR (uPAR-Fc)) [nM]
1 | CCCCOC(=O)N[C@H]1CSSC[C@@H](C(N)=O)NC(=O)[C@H](CCC)NC(=O)[C@H]([C@@H](C)CC)NC(=O)[C@@H]2C[C@@H](O)CN2C(=O)[C@@H]2C[C@H](F)CN2C(=O)[C@H](Cc2ccccc2)NC(=O)[C@H](Cc2ccc(O)cc2)NC(=O)[C@H](CCCCNC(=O)[C@@H](CC(=O)O)NC(=O)CN2CCN(CC(=O)O)CCN(CC(=O)O)CCN(CC(=O)O)CC2)NC(=O)[C@H]([C@@H](C)O)NC1=O [UPAR-424, Butoc-[Cys-Thr-Lys(DOTA-asp)-Tyr-Phe-4Cfp-Hyp-Ile-Nva-Cys]-NHz] (Butoxycarbonyl-CTK([dD-DOTA])YF[Pro(cis-4-F)][Hyp]I[Nva]C-NH2; disulfide 1-10) | ≥ 8.00 | < 1.58
2 | CCCCC(=O)N[C@H]1CSSC[C@@H](C(N)=O)NC(=O)[C@H](CCC)NC(=O)[C@H]([C@@H](C)CC)NC(=O)CNC(=O)[C@@H]2CCCN2C(=O)[C@H](Cc2ccccc2)NC(=O)[C@H](Cc2ccc(O)cc2)NC(=O)[C@H](CCCCNC(=O)CN2CCN(CC(=O)O)CCN(CC(=O)O)CCN(CC(=O)O)CC2)NC(=O)[C@H](CCCNC(N)=O)NC1=O [UPAR-425, Pent-[Cys-Cit-Lys(DOTA)-Tyr-Phe-Pro-Gly-Ile-Nva-Cys]-NH2] (Pentanoyl-C[Cit]K(DOTA)YFPGI[Nva]C-NH2; disulfide 1-10) | ≥ 8.00 | < 1.58
3 | CC[C@H](C)[C@@H]1NC(=O)[C@@H](C)NC(=O)[C@@H]2CCN2C(=O)[C@H](Cc2ccccc2)NC(=O)[C@H](Cc2ccc(O)cc2)NC(=O)[C@H](CCC(N)=O)NC(=O)[C@H](CCCNC(N)=O)NC(=O)[C@@H](NC(=O)CCC(C)C)CSSC[C@@H](C(N)=O)NC(=O)[C@H](CC(C)C)NC1=O [UPAR-426, iHex-[Cys-Cit-Gln-Tyr-Phe-Aze-ala-Ile-Leu-Cys]-NH2] ({Pentanoyl(4-Me)}-C[Cit]QYF[Aze][dA]ILC-NH2; disulfide 1-10) | ≥ 8.00 | 1.58 to 10
4 | CCCC[C@H](NC)C(=O)N[C@H]1CSSC[C@@H](C(N)=O)NC(=O)[C@H](CCC)NC(=O)[C@H]([C@@H](C)CC)NC(=O)[C@@H]2C[C@@H](O)CN2C(=O)[C@@H]2C[C@H](F)CN2C(=O)[C@H](Cc2ccccc2)NC(=O)[C@H](Cc2ccc(O)cc2)NC(=O)[C@H](CCCCNC(=O)CN2CCN(CC(=O)O)CCN(CC(=O)O)CCN(CC(=O)O)CC2)NC(=O)[C@H]([C@@H](C)O)NC1=O [UPAR-428, H-Nmb-[Cys-Thr-Lys(DOTA)-Tyr-Phe-4Cfp-Hyp-Ile-Nva-Cys]-NH2] (H-[NMeNle]CTK(DOTA)YF[Pro(cis-4-F)][Hyp]I[Nva]C-NH2; disulfide 2-11) | ≥ 8.00 | < 1.58
5 | CCC[C@@H]1NC(=O)[C@H]([C@@H](C)CC)NC(=O)[C@@H](C)NC(=O)[C@@H]2CCCN2C(=O)[C@H](Cc2ccccc2)NC(=O)[C@H](Cc2ccc(O)cc2)NC(=O)[C@H](CCC(N)=O)NC(=O)[C@H](CCCNC(N)=O)NC(=O)[C@@H](NC(=O)CCC(C)C)CSSC[C@@H](C(N)=O)NC1=O [UPAR-429, iHex-[Cys-Cit-Gln-Tyr-Phe-Pro-ala-Ile-Nva-Cys]-NH2] ({Pentanoyl(4-Me)}-C[Cit]QYFP[dA]I[Nva]C-NH2; disulfide 1-10) | ≥ 8.00 | < 1.58
6 | CCCCC(=O)N[C@H]1CSSC[C@@H](C(=O)NCCN)NC(=O)[C@H](CCC)NC(=O)[C@H]([C@@H](C)CC)NC(=O)[C@@H]2C[C@@H](O)CN2C(=O)[C@@H]2CCCN2C(=O)[C@H](Cc2ccccc2)NC(=O)[C@H](Cc2ccc(O)cc2)NC(=O)[C@H](CCC(N)=O)NC(=O)[C@H](CCCNC(N)=O)NC1=O [UPAR-430, Pent-[Cys-Cit-Gln-Tyr-Phe-Pro-Hyp-Ile-Nva-Cys]-en] (Pentanoyl-C[Cit]QYFP[Hyp]I[Nva]C-Ethylenediamine; disulfide 1-10) | 7.50 to 7.90 | 1.58 to 10
7 | CCCC[C@@H]1NC(=O)[C@H](CCCNC(=N)N)NC(=O)[C@@H](NC(=O)[C@H](CC(C)C)NC(=O)[C@H](CC(=O)O)NC(C)=O)CSSC[C@@H](C(N)=O)NC(=O)[C@H](CC(C)C)NC(=O)[C@H]([C@@H](C)CC)NC(=O)[C@@H]2CCCN2C(=O)[C@@H]2CCCN2C(=O)[C@H](Cc2ccccc2)NC(=O)[C@H](Cc2ccc(O)cc2)NC1=O [UPAR-431, Ac-Asp-Leu-[Cys-Arg-Nle-Tyr-Phe-Pro-Pro-Ile-Leu-Cys]-NH2] (Ac-DLCR[Nle]YFPPILC-NH2; disulfide 3-12) | ≥ 8.00 | < 1.58
8 | CC[C@H](C)[C@@H]1NC(=O)[C@@H](C)NC(=O)[C@@H]2CCCN2C(=O)[C@H](Cc2ccccc2)NC(=O)[C@H](Cc2ccc(O)cc2)NC(=O)[C@H](CCCCNC(=O)CN2CCN(CC(=O)O)CCN(CC(=O)O)CCN(CC(=O)O)CC2)NC(=O)[C@H](CC(=O)O)NC(=O)[C@@H](NC(=O)[C@H](CC(C)C)NC(=O)[C@H](CC(=O)O)NC(C)=O)CSSC[C@@H](C(N)=O)NC(=O)[C@H](CC(C)C)NC1=O [UPAR-432, Ac-Asp-Leu-[Cys-Asp-Lys(DOTA)-Tyr-Phe-Pro-ala-Ile-Leu-Cys]-NH2] (Ac-DLCDK(DOTA)YFP[dA]ILC-NH2; disulfide 3-12) | 7.50 to 7.90 | 10 to 100
9 | CCCCC(=O)N[C@H]1CSSC[C@@H](C(N)=O)NC(=O)[C@H](CCC)NC(=O)[C@H]([C@@H](C)CC)NC(=O)[C@@H]2C[C@@H](O)CN2C(=O)[C@H](CC(C)C)NC(=O)[C@H](Cc2ccccc2)NC(=O)[C@H](Cc2ccc(O)cc2)NC(=O)[C@H](CCC(N)=O)NC(=O)[C@H](CCCNC(=N)N)NC1=O [UPAR-433, Pent-[Cys-Arg-Gln-Tyr-Phe-Leu-Hyp-Ile-Nva-Cys]-NH2] (Pentanoyl-CRQYFL[Hyp]I[Nva]C-NH2; disulfide 1-10) | ≥ 8.00 | < 1.58
10 | CCCCC(=O)N[C@H]1CSSC[C@@H](C(N)=O)NC(=O)[C@H](CCC)NC(=O)[C@H]([C@@H](C)CC)NC(=O)[C@@H](CCC(=O)O)NC(=O)[C@@H]2CCCN2C(=O)[C@H](Cc2ccccc2)NC(=O)[C@H](Cc2ccc(O)cc2)NC(=O)[C@H](CCC(N)=O)NC(=O)[C@H](CCCNC(=N)N)NC1=O [UPAR-436, Pent-[Cys-Arg-Gln-Tyr-Phe-Pro-glu-Ile-Nva-Cys]-NH2] (Pentanoyl-CRQYFP[dE]I[Nva]C-NH2; disulfide 1-10) | 7.50 to 7.90 | 10 to 100
11 | CCCCC(=O)N[C@H]1CSSC[C@@H](C(N)=O)NC(=O)[C@H](CCC)NC(=O)[C@H](c2ccccc2)NC(=O)[C@@H]2C[C@@H](O)CN2C(=O)[C@@H]2CCCN2C(=O)[C@H](Cc2ccccc2)NC(=O)[C@H](Cc2ccc(O)cc2)NC(=O)[C@H](CCC(N)=O)NC(=O)[C@H](CCCNC(=N)N)NC1=O [UPAR-437, Pent-[Cys-Arg-Gln-Tyr-Phe-Pro-Hyp-Phg-Nva-Cys]-NHz] (Pentanoyl-CRQYFP[Hyp][Phg][Nva]C-NH2; disulfide 1-10) | ≥ 8.00 | < 1.58
12 | CCCCC(=O)N[C@H]1CSSC[C@@H](C(N)=O)NC(=O)[C@H](CCC)NC(=O)[C@H]([C@@H](C)CC)NC(=O)[C@@H](CCCN)NC(=O)[C@@H]2CCCN2C(=O)[C@H](Cc2ccccc2)NC(=O)[C@H](Cc2ccc(O)cc2)NC(=O)[C@H](CCC(N)=O)NC(=O)[C@H](CCCNC(=N)N)NC1=O [UPAR-438, Pent-[Cys-Arg-Gln-Tyr-Phe-Pro-orn-Ile-Nva-Cys]-NH2] (Pentanoyl-CRQYFP[dOrn]I[Nva]C-NH2; disulfide 1-10) | 7.50 to 7.90 | 1.58 to 10
13 | CC[C@H](C)[C@@H]1NC(=O)[C@@H](C)NC(=O)[C@@H]2C[C@@H](O)CN2C(=O)[C@H](Cc2ccccc2)NC(=O)[C@H](Cc2ccc(O)cc2)NC(=O)[C@H](CCC(N)=O)NC(=O)[C@H](CCCNC(N)=O)NC(=O)[C@@H](NC(=O)CCC(C)C)CSSC[C@@H](C(N)=O)NC(=O)[C@H](CC(C)C)NC1=O [UPAR-439, iHex-[Cys-Cit-Gln-Tyr-Phe-Hyp-ala-Ile-Leu-Cys]-NH2] ({Pentanoyl(4-Me)}-C[Cit]QYF[Hyp][dA]ILC-NH2; disulfide 1-10) | ≥ 8.00 | 1.58 to 10
14 | CCCC[C@@H]1NC(=O)[C@H](CCCNC(=N)N)NC(=O)[C@@H](NC(=O)[C@H](CC(C)C)NC(=O)[C@H](CC(=O)O)NC(C)=O)CSSC[C@@H](C(N)=O)NC(=O)[C@H](CC(C)C)NC(=O)[C@H]([C@@H](C)CC)NC(=O)C(C)(C)NC(=O)[C@@H]2CCCN2C(=O)[C@H](Cc2ccccc2)NC(=O)[C@H](Cc2ccc(O)cc2)NC1=O [UPAR-440, Ac-Asp-Leu-[Cys-Arg-Nle-Tyr-Phe-Pro-Aib-Ile-Leu-Cys]-NH2] (Ac-DLCR[Nle]YFP[Aib]ILC-NH2; disulfide 3-12) | ≥ 8.00 | < 1.58
15 | CCCCC(=O)N[C@H]1CSSC[C@@H](C(N)=O)NC(=O)[C@H](CCC)NC(=O)[C@H]([C@@H](C)CC)NC(=O)[C@@H]2C[C@@H](O)CN2C(=O)[C@@H]2CCCN2C(=O)[C@H](Cc2ccccc2)NC(=O)[C@H](CCCCN)NC(=O)[C@H](CCC(N)=O)NC(=O)[C@H](CCCNC(=N)N)NC1=O [UPAR-442, Pent-[Cys-Arg-Gln-Lys-Phe-Pro-Hyp-Ile-Nva-Cys]-NH2] (Pentanoyl-CRQKFP[Hyp]I[Nva]C-NH2; disulfide 1-10) | 7.00 to 7.40 | 10 to 100

From patent EP4610269A1, “UROKINASE PLASMINOGEN ACTIVATOR SURFACE RECEPTOR (UPAR) LIGANDS FOR DIAGNOSTIC OR THERAPEUTIC USE” (3B Pharmaceuticals GmbH, priority 2024, dated 2025)
